According to ChEMBL document CHEMBL4431323, “Synthesis and carbonic anhydrase inhibitory effects of new N-glycosylsulfonamides incorporating the phenol moiety” (Bioorg Med Chem Lett, 2016):

Tests used:
Carbonic anhydrase 12 = Carbonic anhydrase 12 (Homo sapiens, UniProt O43570); test: Inhibition of human carbonic anhydrase 12 incubated for 15 mins prior to testing by stopped flow CO2 hydration assay
Carbonic anhydrase 9 = Carbonic anhydrase 9 (Homo sapiens, UniProt Q16790); test: Inhibition of human carbonic anhydrase 9 incubated for 15 mins prior to testing by stopped flow CO2 hydration assay

Carbonic anhydrase 12, sequence (O43570 whole entry): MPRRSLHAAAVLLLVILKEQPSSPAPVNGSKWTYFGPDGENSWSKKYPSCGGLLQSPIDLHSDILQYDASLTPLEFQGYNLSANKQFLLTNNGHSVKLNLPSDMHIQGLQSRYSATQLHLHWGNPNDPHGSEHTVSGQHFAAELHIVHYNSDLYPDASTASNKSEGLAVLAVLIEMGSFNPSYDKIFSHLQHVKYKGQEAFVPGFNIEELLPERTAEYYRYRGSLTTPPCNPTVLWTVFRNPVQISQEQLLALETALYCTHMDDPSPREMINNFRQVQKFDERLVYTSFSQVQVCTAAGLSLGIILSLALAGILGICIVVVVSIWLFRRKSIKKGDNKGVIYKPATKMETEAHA

Row | Ki (Carbonic anhydrase 12) [µM] | Ki (Carbonic anhydrase 9) [µM] | Structure (SMILES)
1 | 0.176 | 0.235 | NS(=O)(=O)c1ccc(O)cc1
2 | > 50 | > 50 | O=S(=O)(N[C@H]1C=C[C@@H](O)[C@@H](CO)O1)c1ccc(O)cc1
3 | > 50 | > 50 | O=S(=O)(N[C@@H]1C=C[C@@H](O)[C@@H](CO)O1)c1ccc(O)cc1
4 | > 50 | > 50 | CC(=O)OC[C@H]1O[C@@H](NS(=O)(=O)c2ccc(O)cc2)C=C[C@H]1OC(C)=O
5 | > 50 | > 50 | CC(=O)OC[C@H]1O[C@H](NS(=O)(=O)c2ccc(O)cc2)C=C[C@H]1OC(C)=O
6 | > 50 | > 50 | O=S(=O)(NC1C=C[C@H](O)[C@@H](CO)O1)c1ccc(O)cc1 (stereo partly drawn)
7 | > 50 | > 50 | CC(=O)OC[C@H]1OC(NS(=O)(=O)c2ccc(O)cc2)C(OC(C)=O)=C[C@@H]1OC(C)=O (stereo partly drawn)
8 | > 50 | > 50 | O=C1C[C@H](O)[C@@H](CO)OC1NS(=O)(=O)c1ccc(O)cc1 (stereo partly drawn)
9 | > 50 | > 50 | CC(=O)OC[C@H]1OC(NS(=O)(=O)c2ccc(O)cc2)C=C[C@@H]1OC(C)=O (relative stereo)
